Test results taken from patent US20230066286A1, “DEUTERATED TRYPTAMINE DERIVATIVES AND METHODS OF USE” (priority 2020, published 2023).

Legend:
rat liver microsomes = test: Metabolic stability in rat liver microsomes (RLM); settings: for RLM (metabolized or not): last time point 120 min; for RLM, % (half-life as % vs. the related nondeuterated compound): values in square brackets are within 10% difference (assay's accuracy), no deuteration effect
hrMAO-A = target: T1, hrMAO-A (Homo sapiens, UniProt P21397); test: Metabolic stability in the presence of hrMAO-A; assay type: in vitro ADME; settings: for MAO, % (half-life as % vs. the related nondeuterated compound) / MAO (metabolized or not): MAO-A assay; for MAO, % (half-life as % vs. the related nondeuterated compound): values in square brackets are within 10% difference (assay's accuracy), no deuteration effect; for MAO (metabolized or not): last time point 120 min
T1 construct: purchased XenoTech Lot# 8213001
T1 sequence (P21397 1-527): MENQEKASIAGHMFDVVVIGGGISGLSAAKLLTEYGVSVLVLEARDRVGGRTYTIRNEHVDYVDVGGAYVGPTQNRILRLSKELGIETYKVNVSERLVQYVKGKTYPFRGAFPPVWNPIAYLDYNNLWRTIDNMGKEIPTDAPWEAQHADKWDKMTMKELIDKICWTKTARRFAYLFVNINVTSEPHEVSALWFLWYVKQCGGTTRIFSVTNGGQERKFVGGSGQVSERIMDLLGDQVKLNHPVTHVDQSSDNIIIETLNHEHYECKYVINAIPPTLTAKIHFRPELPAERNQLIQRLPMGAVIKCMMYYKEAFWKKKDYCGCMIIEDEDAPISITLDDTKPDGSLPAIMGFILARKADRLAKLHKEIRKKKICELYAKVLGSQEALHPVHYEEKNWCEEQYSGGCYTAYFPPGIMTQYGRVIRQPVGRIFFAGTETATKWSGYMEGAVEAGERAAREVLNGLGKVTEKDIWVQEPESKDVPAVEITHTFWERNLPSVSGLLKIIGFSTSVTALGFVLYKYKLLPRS
Method: The reaction mixture was prepared as described below. The co-dosed TAs were added into the reaction mixture at a final concentration of 1 microM each. The positive control, kynuramine (25 microM), was run simultaneously with the TAs in a separate reaction. The reaction mixture (without TAs or kynuramine) was equilibrated in a shaking water bath at 37° C. for 5 minutes. The reaction was initiated by the addition of the TAs or kynuramine, and the mixture was incubated in a shaking water bath at 37° C. Aliquots (100 microL) of the TA reaction mixture were withdrawn at 0, 5, 10, 20, 30, 60, and 120 minutes. Aliquots (100 microL) of the positive control reaction mixture were withdrawn at 0 and 30 minutes. TA and kynuramine samples were immediately combined with 100 microL of ice-cold 100% MeCN containing 0.1% formic acid and IS to terminate the reaction. The samples were then mixed and centrifuged to precipitate proteins. All TA samples were assayed by LC-HRAMS. The PARR (analyte to IS) at each time point was compared to the PARR at time 0 to determine the percent remaining at each time point. Reaction composition: hrMAO 0.02 mg/mL; Potassium Phosphate, pH 7.4 100 mM; Magnesium Chloride 5 mM; Test Articles (each) 1 microM.

[1] = oral; cited from earlier work
[2] = PK study in rats, cassette dosing; assay type: in vivo, rat; settings: % change vs. non-deuterated material, 5 mg/kg, oral gavage or via catheter
Method: (§1) The key PK parameters (presented as a % change vs. non-deuterated materials) are presented in Table 3 to include half-life (T½), area under the curve (AUC), bioavailability (F) and blood-to-plasma ration (BPR). Pharmacokinetics of the deuterated tryptamines was studied in rats. In a typical experiment, run as a cassette dosing, two groups of 5 Wistar female rats (200-250 g) with surgically inserted jugular vein catheter (Charles River, Andover, MA) were fasted for 12 h and then administered 5 mg/kg of the deuterated and 5 mg/kg of the related non-deuterated analog, by oral gavage or via a catheter for each group. At time points 0, 15, 30, 60 min, and 2, 4, 8, and 24 h, the resulting plasma was analyzed for the parent molecule using LC/MS spectroscopy. Two separate groups of 5 animals were used for determining blood-to-plasma ratio (BPR). Each group was sacrificed at time points 15 and 30 min, respectively, and the concentration of the parent drug was determined in the […] and plasma by LC/MS spectroscopy.

[3] = Blood-to-plasma ratio (BPR), parent drug in brain and plasma of rats; assay type: in vivo, rat; settings: % change vs. non-deuterated material
Method: as §1

C=CCN(CC=C)CCc1c[nH]c2ccccc12
RLM (metabolized or not) (rat liver microsomes; RLM assay): R

C=CCNCCc1c[nH]c2ccccc12
RLM (metabolized or not) (rat liver microsomes; RLM assay): R

[2H]C([2H])(Cc1c[nH]c2ccccc12)NC([2H])([2H])C([2H])([2H])[2H]
MAO, % (half-life as % vs. the related nondeuterated compound) (hrMAO-A): 170%

[2H]C([2H])([2H])C([2H])([2H])NC([2H])([2H])C([2H])([2H])c1c[nH]c2cccc(O)c12
RLM, % (half-life as % vs. the related nondeuterated compound) (rat liver microsomes; RLM assay): [93] %

CCN(CC)CCc1c[nH]c2ccccc12
RLM (metabolized or not) (rat liver microsomes; RLM assay): R

[2H]C([2H])(c1c[nH]c2ccc(OC)cc12)C([2H])([2H])N(CC)CC
RLM, % (half-life as % vs. the related nondeuterated compound) (rat liver microsomes; RLM assay): [95] %

CCN(CC)CCc1c[nH]c2ccc(OC)cc12
RLM (metabolized or not) (rat liver microsomes; RLM assay): R

CCN(CC)CCc1c[nH]c2ccc(O)cc12
RLM (metabolized or not) (rat liver microsomes; RLM assay): R

CCN(CC)CCc1c[nH]c2cccc(OC)c12
RLM (metabolized or not) (rat liver microsomes; RLM assay): R

[2H]c1ccc2[nH]c([2H])c(CCN([2H])CC)c2c1O
RLM (metabolized or not) (rat liver microsomes; RLM assay): R

[2H]C([2H])(NCC)C([2H])([2H])c1c[nH]c2ccccc12
MAO, % (half-life as % vs. the related nondeuterated compound) (hrMAO-A): 140%

CCNCCc1c[nH]c2ccccc12
MAO (metabolized or not) (hrMAO-A): R
RLM (metabolized or not) (rat liver microsomes; RLM assay): R

[2H]C([2H])(NCC)C([2H])([2H])c1c[nH]c2cccc(O)c12
RLM, % (half-life as % vs. the related nondeuterated compound) (rat liver microsomes; RLM assay): [94] %

CCNCCc1c[nH]c2cccc(O)c12
RLM (metabolized or not) (rat liver microsomes; RLM assay): R

CCN(C)CCc1c[nH]c2ccccc12
MAO (metabolized or not) (hrMAO-A): R
RLM (metabolized or not) (rat liver microsomes; RLM assay): R

CCN(C)CCc1c[nH]c2ccc(OC)cc12
MAO (metabolized or not) (hrMAO-A): R
RLM (metabolized or not) (rat liver microsomes; RLM assay): R

CCN(C)CCc1c[nH]c2ccc(O)cc12
MAO (metabolized or not) (hrMAO-A): R
RLM (metabolized or not) (rat liver microsomes; RLM assay): R

CCN(C)CCc1c[nH]c2cccc(OC)c12
MAO (metabolized or not) (hrMAO-A): R
RLM (metabolized or not) (rat liver microsomes; RLM assay): R

COc1ccc2[nH]cc(CCN(C)C)c2c1
MAO (metabolized or not) (hrMAO-A): R
RLM (metabolized or not) (rat liver microsomes; RLM assay): R

CN(C)CCc1c[nH]c2ccc(O)cc12
MAO (metabolized or not) (hrMAO-A): R
RLM (metabolized or not) (rat liver microsomes; RLM assay): R

[2H]C([2H])(c1c[nH]c2cccc(OC)c12)C([2H])([2H])N(C)C
RLM, % (half-life as % vs. the related nondeuterated compound) (rat liver microsomes; RLM assay): 190%

COc1cccc2[nH]cc(CCN(C)C)c12
MAO (metabolized or not) (hrMAO-A): R
RLM (metabolized or not) (rat liver microsomes; RLM assay): R

CNCCc1c[nH]c2ccccc12
MAO (metabolized or not) (hrMAO-A): R
RLM (metabolized or not) (rat liver microsomes; RLM assay): R

[2H]C([2H])(NC)C([2H])([2H])c1c[nH]c2cccc(O)c12
RLM, % (half-life as % vs. the related nondeuterated compound) (rat liver microsomes; RLM assay): 160%

CNCCc1c[nH]c2cccc(O)c12
MAO (metabolized or not) (hrMAO-A): R
RLM (metabolized or not) (rat liver microsomes; RLM assay): R

CC(C)NCCc1c[nH]c2ccccc12
RLM (metabolized or not) (rat liver microsomes; RLM assay): R

CC(C)NCCc1c[nH]c2cccc(O)c12
RLM (metabolized or not) (rat liver microsomes; RLM assay): R

[2H]C([2H])(c1c[nH]c2cccc(O)c12)C([2H])([2H])N(C(C)C)C(C)C
RLM, % (half-life as % vs. the related nondeuterated compound) (rat liver microsomes; RLM assay): [97] %

CC(C)N(CCc1c[nH]c2cccc(O)c12)C(C)C
RLM (metabolized or not) (rat liver microsomes; RLM assay): R

COc1cc(CCNCc2ccccc2OC)c(OC)cc1Cl [2C-C-NBOMe, 2-(4-Chloro-2,5-dimethoxyphenyl)-N-[(2-methoxyphenyl)methyl]ethan-l-amine]
orally active dose, as low as [1]: 25 µg
very strong psychedelic doses [1]: 500 to 700 µg

[2H]C([2H])(Cc1c[nH]c2ccc(OC)cc12)N(C)C [5-MeO-DMT-α,α-d2]
AUC, deuterium kinetic isotope effect (% change) [2]: 60%
T½, deuterium kinetic isotope effect (% change) [2]: 30%
BPR, 15 min, deuterium kinetic isotope effect (% change) ([3]; rats sacrificed at 15 min): 120%
BPR, 30 min, deuterium kinetic isotope effect (% change) ([3]; rats sacrificed at 30 min): 180%

[2H]C([2H])(Cc1c[nH]c2ccccc12)N(C)C [DMT-d2]
CLint (hrMAO-A; hrMAO-A, four test articles): 0.126 mL/min/ mg protein
% Remaining of Initial 0 min (hrMAO-A; hrMAO-A, four test articles): 100%
% Remaining of Initial 60 min (hrMAO-A; hrMAO-A, four test articles, 60 min): 76.0%
% Remaining of Initial 0 min (rat liver microsomes; RLM, four test articles): 100%
% Remaining of Initial 60 min (rat liver microsomes; RLM, four test articles, 60 min): 32.0%

[2H]C([2H])(c1c[nH]c2ccccc12)C([2H])([2H])N(C)C [DMT-d4]
CLint (hrMAO-A; hrMAO-A, four test articles): 0.119 mL/min/ mg protein
% Remaining of Initial 0 min (hrMAO-A; hrMAO-A, four test articles): 100%
% Remaining of Initial 0 min (rat liver microsomes; RLM, four test articles): 100%

[2H]C([2H])([2H])N(C([2H])([2H])[2H])C([2H])([2H])C([2H])([2H])c1c[nH]c2ccccc12 [DMT-d10]
stability in the MAO-A enzymatic assay vs. less deuterated DMT analogs (hrMAO-A; MAO-A enzymatic assay): superiority
% Remaining of Initial 0 min (hrMAO-A; hrMAO-A, d8 and d10 analogs of DMT): 100.0%
% Remaining of Initial 5 min (hrMAO-A; hrMAO-A, d8 and d10 analogs of DMT, 5 min): 99.0%
% Remaining of Initial 0 min (hrMAO-A; hrMAO-A, four test articles): 100%
% Remaining of Initial 0 min (rat liver microsomes; RLM, d8 and d10 analogs of DMT): 100%
% Remaining of Initial 10 min (rat liver microsomes; RLM, d8 and d10 analogs of DMT, 10 min): 56.0%
% Remaining of Initial 0 min (rat liver microsomes; RLM, four test articles): 100%
metabolic stability vs. less deuterated DMT analogs (rat liver microsomes; rat liver microsomes): Further enhancement of metabolic stability

[2H]c1[nH]c2c([2H])c([2H])c([2H])c([2H])c2c1C([2H])([2H])C([2H])([2H])N(C([2H])([2H])[2H])C([2H])([2H])[2H] [DMT-dis]
half-life compared to DMT-d10 (rat liver microsomes; RLM assay, additional deuteration in the phenyl ring): no improvement in half-life

CN(C)CCc1c[nH]c2ccccc12 [DMT]
CLint (hrMAO-A; hrMAO-A, four test articles): 0.638 mL/min/ mg protein
% Remaining of Initial 0 min (hrMAO-A; hrMAO-A, four test articles): 100%
% Remaining of Initial 0 min (rat liver microsomes; RLM, four test articles): 100%
% Remaining of Initial 20 min (rat liver microsomes; RLM, four test articles, 20 min): 41.0%
